# US20010029304A1, “Cyclopentane heptan (ENE)OIC acid, 2-heteroarylalkenyl derivatives as therapeutic agents” (ALLERGAN, priority 1996, published 2001)
# Columns and labels:
# EP4 = biological target: T1, EP4 (Oryctolagus cuniculus, UniProt Q28691); assay: EP4-activity: relaxation of smooth muscle of isolated rabbit jugular vein; format: cell-based; conditions: nM printed only with EC50 in the table head
# T1 construct: smooth muscle of isolated rabbit jugular vein; from tissue; host or cells: isolated rabbit jugular vein smooth muscle
# T1 sequence (Q28691 whole entry): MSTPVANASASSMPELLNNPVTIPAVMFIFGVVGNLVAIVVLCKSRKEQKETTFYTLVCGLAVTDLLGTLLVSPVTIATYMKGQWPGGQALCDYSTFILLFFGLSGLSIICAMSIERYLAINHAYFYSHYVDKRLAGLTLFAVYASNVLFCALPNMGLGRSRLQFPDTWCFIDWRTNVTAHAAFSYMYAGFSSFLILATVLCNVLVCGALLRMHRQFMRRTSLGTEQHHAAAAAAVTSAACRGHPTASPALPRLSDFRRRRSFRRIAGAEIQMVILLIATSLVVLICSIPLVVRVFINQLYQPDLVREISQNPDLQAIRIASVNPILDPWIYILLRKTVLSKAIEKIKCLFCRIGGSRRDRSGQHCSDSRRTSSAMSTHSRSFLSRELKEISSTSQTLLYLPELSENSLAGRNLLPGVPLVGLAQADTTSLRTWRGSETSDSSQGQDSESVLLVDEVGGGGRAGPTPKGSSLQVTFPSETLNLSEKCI
# Experimental: (§1) Activity at different prostanoid receptors was measured in vitro in isolated smooth muscle preparations. FP-activity was measured as contraction of the isolated feline iris sphincter. EP4-activity was measured as relaxation of smooth muscle of isolated rabbit jugular vein. TP-vasoconstrictor activity was measured as contraction of rings of the isolated rat thoracic aorta. Effects on platelets from healthy human donors were measured by incubating platelet-rich plasma with the compounds described herein. Inhibition of aggregation was determined by the ability of the compounds described herein to inhibit platelet aggregation in platelet-rich plasma induced by 20 μM adenosine diphosphate (ADP).
# TP = biological target: T2, TP (Rattus norvegicus, UniProt P34978); assay: TP-vasoconstrictor activity: contraction of rings of the isolated rat thoracic aorta; format: cell-based; conditions: EC50 (nM) printed in the first part of the table head
# T2 construct: rings of the isolated rat thoracic aorta; from tissue; host or cells: rings of isolated rat thoracic aorta
# T2 sequence (P34978 1-341): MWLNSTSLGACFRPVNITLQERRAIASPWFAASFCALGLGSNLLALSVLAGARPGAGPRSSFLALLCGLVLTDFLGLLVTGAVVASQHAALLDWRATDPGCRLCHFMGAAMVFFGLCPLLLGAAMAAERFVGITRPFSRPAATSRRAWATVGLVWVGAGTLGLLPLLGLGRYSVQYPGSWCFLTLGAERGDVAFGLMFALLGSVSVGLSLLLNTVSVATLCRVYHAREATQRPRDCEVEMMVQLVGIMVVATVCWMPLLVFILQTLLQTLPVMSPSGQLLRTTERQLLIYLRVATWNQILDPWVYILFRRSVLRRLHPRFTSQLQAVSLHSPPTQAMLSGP
# Experimental: as §1
# Dog intraocular pressure = Dog intraocular pressure (applanation pneumatonometry) with hyperemia/miosis; format: in vivo; conditions: for Dog IOP (1 day): 25 μl to the ocular surface, IOP before and at 6 hours after drug; for Hyp: first part of Hyp/Mlosis cell; for Mlosis: second part of Hyp/Mlosis cell
# Experimental: The compounds were prepared at the said concentrations in a vehicle comprising 0.1% polysorbate 80 and 10 mM tris (hydroxy methyl) aminomethane hydrochloride (TRIS) base. Dogs were treated by administering 25 μl to the ocular surface, the contralateral eye received vehicle as a control. Intraocular pressure was measured by applanation pneumatonometry. Dog intraocular pressure was measured immediately before drug administration and at 6 hours thereafter.
SMILES,IC25 EP4 (EP4),EC50 (TP),Hyp (Dog intraocular pressure; 0.1%),Mlosis (Dog intraocular pressure; 0.1%),Hyp (Dog intraocular pressure; 0.01%),Mlosis (Dog intraocular pressure; 0.01%),Dog IOP (1 day) (Dog intraocular pressure; 0.1%),Dog IOP (1 day) (Dog intraocular pressure; 0.01%)
Cc1ccc(CCC(O)/C=C/C2C(O)CC(O)[C@@H]2C/C=C\CCCC(N)=O)o1 (some centres unmarked),3760 nM,–,0.75,pinpoint,–,–,0.1%/−2.1,–
NC(=O)CCC/C=C\C[C@H]1C(O)CC(O)C1/C=C/C(O)CCc1ccco1 (some centres unmarked),620 nM,–,1.0,pinpoint,1.5,pinpoint,−4.4,−3.2
Cc1cc(CCC(O)/C=C/C2C(O)CC(O)[C@@H]2C/C=C\CCCC(N)=O)cs1 (some centres unmarked),1630 nM,–,0.6,pinpoint,–,–,0.1%/−3.6,–
COC(/C=C/C1C(O)CC(O)[C@@H]1C/C=C\CCCC(=O)O)CCc1ccco1 (some centres unmarked),57 nM,–,–,–,–,–,–,–
COC(/C=C/C1C(O)CC(O)[C@@H]1C/C=C\CCCC(=O)O)CCc1ccsc1C (some centres unmarked),100 nM,–,–,–,–,–,–,–

# More lines, main results first:
IC25 EP4 (EP4),EC50 (TP),Hyp (Dog intraocular pressure; 0.1%),Mlosis (Dog intraocular pressure; 0.1%),Hyp (Dog intraocular pressure; 0.01%),Mlosis (Dog intraocular pressure; 0.01%),SMILES,Dog IOP (1 day) (Dog intraocular pressure; 0.1%),Dog IOP (1 day) (Dog intraocular pressure; 0.01%)
21190 nM,–,–,–,–,–,O=C(O)CCC/C=C\C[C@H]1C(O)CC(O)C1/C=C/C(O)CCc1sc2ccccc2c1Cl (some centres unmarked),–,–
23 nM,692 nM,–,–,–,–,O=C(O)CCC/C=C\C[C@H]1C(O)CC(O)C1/C=C/C(O)CCc1cc(Br)c(Br)s1 (some centres unmarked),–,–
23 nM,> 10000 nM,1.13,pinpoint,–,–,Cc1ccc(CCC(O)/C=C/C2C(O)CC(O)[C@@H]2C/C=C\CCCC(=O)O)o1 (some centres unmarked),0.1%/−2.7,–
165 nM,–,–,–,–,–,NC(=O)CCC/C=C\C[C@H]1C(O)CC(O)C1/C=C/C(O)CCc1cc(Br)c(Br)s1 (some centres unmarked),–,–
